Key:
[1] = test system: Mycobacterium tuberculosis (Mtb-GFP; H37Rv pMSP12::GFP); format: cell-based; conditions: pH 6.8, 7-day growth, 95% growth inhibition; for Mtb Cho MITC95: cholesterol as carbon source; for Mtb Glu MITC95: glucose as carbon source
in vivo [2] = conditions: male, rat, iv
Description: Plasma pharmacokinetic parameters for clearance, volume of distribution, half-life and oral bioavailability were determined in rats from oral administration and IV administration studies. 4 male rats, typically weighing 225-260 gram, were fasted overnight prior to dosing. Compounds were prepared for oral and IV dosing by addition to a vehicle, depending on the dose used. For a typical preparation, 1 mg per mL (IV) or 1.5 mg per mL (oral) of test compound was added to vehicle comprised of 20% dimethyl sulfoxide (DMSO), 60% polyethylene glycol 400 (PEG400) and 20% water. Intravenous (IV) formulation was administered to two rats via pre-cannulated jugular vein, and oral dosing was administered to two rats via oral gavage. Blood was collected by pre-cannulated artery, typically at predose, 2, 8, 15, 30 min, 1, 2, 4, 6, and 8 hours post-dose for IV, and at predose, 15, 30 mins, 1, 2, 4, 6, 8 hours for oral dosing. Samples were collected in K2EDTA tubes, stored on ice, and centrifuged. Plasma was transferred to a micro titer plate and stored at −70° C. until analysis. Plasma samples were extracted using protein precipitation and analyzed by liquid chromatography separation followed by mass spec detection (LC-MS/MS), using a standard curve for each compound. Plasma pharmacokinetic parameters were calculated for IV and oral dosing data by non-compartmental methods. Oral bioavailability was determined as the ratio of the dose-normalized plasma area under the curve (AUC) following oral dosing vs. IV dosing. Plasma pharmacokinetic parameters for clearance, volume of distribution, half-life and mean residence time (MRT) were determined in rats from IV cassette administration studies. Two male rats typically weighing 225-260 gram, were fasted overnight prior to dosing. Compounds were prepared for IV dosing by addition to a vehicle, depending on the dose used. For a typical preparation, 1 mg per mL (IV) of up to 5 test compounds were added to vehicle comprised of 20% dimethyl sulfoxide (DMSO), 60% polyethylene glycol 400 (PEG400) and 20% water. IV formulation was administered to two rats via pre-cannulated jugular vein. Blood was collected by pre-cannulated artery, typically at predose, 2, 8, 15, 30 mins, 1, 2, 4, 6, and 8 hours postdose. Samples were collected in K2EDTA tubes, stored on ice, and centrifuged. Plasma was transferred to a micro titer plate and stored at −70° C. until analysis. Plasma samples were extracted using protein precipitation and analyzed by liquid chromatography separation followed by mass spec detection (LC-MS/MS), using a standard curve for each compound. Plasma pharmacokinetic parameters were calculated by non-compartmental methods.

in vivo [3] = conditions: male, dog, iv
Description: Plasma pharmacokinetic parameters for clearance, volume of distribution, half-life, mean residence time (MRT) and oral bioavailability were determined in dogs from oral administration and IV administration studies. Four male dogs, typically weighing 8-12 kilograms, were fasted overnight prior to dosing. Compounds were prepared for oral and IV dosing by addition to a vehicle, depending on the dose used. For a typical preparation, 1 mg per mL (IV) or 1.5 mg per mL (oral) of test compound was added to vehicle comprised of 20% dimethyl sulfoxide (DMSO), 60% polyethylene glycol 400 (PEG400) and 20% water. IV formulation was administered to two dogs via the saphenous or cephalic vein, and oral dosing was administered to two dogs via oral gavage. Blood was collected by the cephalic or jugular vein, typically at predose, 2, 8, 15, 30 mins, 1, 2, 4, 6, 8 and 24 hours post-dose for IV, and at predose, 15, 30 mins, 1, 2, 4, 6, 8, and 24 hours for oral dosing. Samples were collected in K2EDTA tubes, stored on ice, and centrifuged. Plasma was transferred to a micro titer plate and stored at −70° C. until analysis. Plasma samples were extracted using protein precipitation and analyzed by liquid chromatography separation followed by mass spec detection (LC-MS/MS), using a standard curve for each compound. Plasma pharmacokinetic parameters were calculated for IV and oral dosing data by non-compartmental methods. Oral bioavailability was determined as the ratio of the dose-normalized plasma area under the curve (AUC) following oral dosing verses IV dosing. Plasma pharmacokinetic parameters for clearance, volume of distribution, half-life, and mean residence time (MRT) were determined in dogs from IV cassette administration studies. Two male dogs, typically weighing 8-12 kilograms, were fasted overnight prior to dosing. Compounds were prepared for IV dosing by addition to a vehicle, depending on the dose used. For a typical preparation, 1 mg per mL (IV) of up to 5 test compounds were added to vehicle comprised of 20% dimethyl sulfoxide (DMSO), 60% polyethylene glycol 400 (PEG400) and 20% water. IV formulation was administered to two dogs via the saphenous or cephalic vein. Blood was collected by the cephalic or jugular vein, typically at predose, 2, 8, 15, 30 mins, 1, 2, 4, 6, 8 and 24 hours post-dose. Samples were collected in K2EDTA tubes, stored on ice, and centrifuged. Plasma was transferred to a micro titer plate and stored at −70° C. until analysis. Plasma samples were extracted using protein precipitation and analyzed by liquid chromatography separation followed by mass spec detection (LC-MS/MS), using a standard curve for each compound. Plasma pharmacokinetic parameters were calculated by non-compartmental methods.

[4] = Plasma protein binding, rat plasma; format: in vitro ADME
Description: (§1) Binding of compounds to plasma proteins from rat and dog was determined by equilibrium dialysis of the appropriate species plasma at 37° C. for 4 hours in the presence of 2.5 uM of test compound. Plasma samples were precipitated and separated by centrifugation. The supernatant was analyzed by mass spec detection (LC-MS/MS), using a standard curve for each compound. The fraction of unbound compound was calculated per the following: • Fraction Unbound (fu)=Peak Area Ratiobuffer/Peak Area Ratioplasma • where • Peak Area Ratiobuffer=Peak area ratio of analyte/internal standard in buffer • Peak Area Ratioplasma=Peak area ratio of analyte/internal standard in plasma

[5] = Plasma protein binding, dog plasma; format: in vitro ADME
Description: as §1

[6] = test system: mitochondrial protein synthesis in HepG2 cells; assay: Mitochondrial protein synthesis assay; format: cell-based; conditions: Homo sapiens, 96 h, 4 days, COX-I vs SDH-A / Janus Green, read-out: MPS IC50
Description: Inhibition of mitochondrial protein synthesis was assessed in HepG2 cells by comparing the levels of two subunits of oxidative phosphorylation enzyme complexes, subunit I of Complex IV (COX-I) and the 70 kDa subunit of Complex II (SDH-A). COX-I is mitochondrial DNA encoded and SDH-A is nuclear DNA encoded.

[7] = comparison compounds from WO2017/070024, read-out: Rat fu
[8] = comparison compounds from WO2017/070024, read-out: Dog fu

COC(=O)NC[C@H]1CN(c2cc(F)c(N3CCS(=O)(=O)CC3)c(F)c2)C(=O)O1 [Example 1, methyl ({(5S)-3-[4-(1,1-dioxo-1λ^6-thiomorpholin-4-yl)-3,5-difluorophenyl]-2-oxo-1,3-oxazolidin-5-yl}methyl)carbamate]
Mtb Cho MITC95 [1]: 1.16 µM | Mtb Glu MITC95 [1]: 0.71 µM | MRT (in vivo [2]): 1.7 h | Vd (in vivo [2]): 0.9 L/kg | clearance (in vivo [2]): 8.5 mL/min/kg | MRT (in vivo [3]): 12.6 h | clearance (in vivo [3]): 1.9 mL/min/kg | fraction unbound at 4 h, 2.5 uM ([4]; equilibrium dialysis, 37° C., 4 hours, 2.5 uM, read-out: Rat fu): 0.42 | fraction unbound at 4 h, 2.5 uM ([5]; equilibrium dialysis, 37° C., 4 hours, 2.5 uM, read-out: Dog fu): 0.69

NC[C@H]1CN(c2cnc(N3CCS(=O)(=O)CC3)c(F)c2)C(=O)O1 [Example 48 from WO2017/070024]
MRT (in vivo [2]): 0.5 h | Vd (in vivo [2]): 2.5 L/kg | clearance (in vivo [2]): 85 mL/min/kg | MRT (in vivo [3]): 1.3 h | Vd (in vivo [3]): 1.5 L/kg | clearance (in vivo [3]): 18 mL/min/kg | fraction unbound at 4 h, 2.5 uM [4, 7]: 0.83 | fraction unbound at 4 h, 2.5 uM [5, 8]: 0.87

NC[C@H]1CN(c2cc(F)c(N3CCOCC3)c(F)c2)C(=O)O1 [Example 59 from WO2017/070024]
MRT (in vivo [2]): 0.8 h | Vd (in vivo [2]): 2 L/kg | clearance (in vivo [2]): 43 mL/min/kg | MRT (in vivo [3]): 1.3 h | Vd (in vivo [3]): 4.2 L/kg | clearance (in vivo [3]): 53 mL/min/kg | fraction unbound at 4 h, 2.5 uM [4, 7]: 0.57 | fraction unbound at 4 h, 2.5 uM [5, 8]: 0.81

CC(=O)NC[C@H]1CN(c2ccc(N3CCOCC3)c(F)c2)C(=O)O1 [linezolid]
Mtb Cho MITC95 [1]: 3.14 µM | Mtb Glu MITC95 [1]: 4.58 µM | IC50 [6]: 8 µM

From patent publication US12435077B2, “Oxazolidinone compound and methods of use thereof as an antibacterial agent” (priority 2020, dated 2025)
